Assay results as given in patent US11154514B2, “Quinic acid-modified nanoparticles and uses thereof” (Purdue Research Foundation, priority 2017, dated 2021).

Key:
[1] = biological target: T1, E-selectin (Homo sapiens, UniProt P16581); assay: Competitive inhibition of QANP binding to activated HUVECs; format: cell-based; conditions: pre-incubated 30 minutes, flow cytometry
T1 construct: TNF-α treatment induces the expression of E-selectin on HUVECs; endogenous in cells
T1 sequence (P16581 22-610): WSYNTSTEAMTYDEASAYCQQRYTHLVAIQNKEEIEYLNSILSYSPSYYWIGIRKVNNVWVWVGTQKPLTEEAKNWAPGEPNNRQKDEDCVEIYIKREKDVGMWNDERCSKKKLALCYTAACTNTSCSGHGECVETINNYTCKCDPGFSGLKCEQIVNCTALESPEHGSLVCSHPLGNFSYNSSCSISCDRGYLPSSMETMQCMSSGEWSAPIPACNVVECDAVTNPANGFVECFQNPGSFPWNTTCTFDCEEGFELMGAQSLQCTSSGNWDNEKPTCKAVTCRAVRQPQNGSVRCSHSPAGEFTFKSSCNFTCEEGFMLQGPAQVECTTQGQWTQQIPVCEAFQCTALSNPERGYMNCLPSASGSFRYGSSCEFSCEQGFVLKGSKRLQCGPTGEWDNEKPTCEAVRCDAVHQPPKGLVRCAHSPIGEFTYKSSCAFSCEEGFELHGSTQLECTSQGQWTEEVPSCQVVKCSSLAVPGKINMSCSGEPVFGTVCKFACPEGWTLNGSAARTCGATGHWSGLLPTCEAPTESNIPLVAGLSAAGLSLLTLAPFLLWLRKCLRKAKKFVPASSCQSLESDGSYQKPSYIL
Method: For flow cytometry, HUVECs were treated with NPs in the same way as above and gently washed with PBS twice to remove free or loosely bound NPs. The cells were then trypsinized, collected by centrifugation at 930×g for 5 minutes, resuspended in 0.2 mL of PBS at 0° C., and analyzed with an Accuri C6 flow cytometer (BD Biosciences, San Jose, Calif., USA) equipped with an FL-1 detector (λex/λem=488/525 nm). For competition assay, known concentrations of free QA-NH2 or E-selectin antibody were pre-incubated with HUVECs for 30 minutes, prior to the NP treatment and flow cytometry.

[2] = system: subcutaneous MDA-MB-231 tumor xenografts; assay: In vivo whole body imaging and ex vivo organ distribution; set-up: species or system female athymic nude mice; conditions: tail vein, imaged over 24 hours
Method: All animal procedures were approved by the Purdue Animal Care and Use Committee, in compliance with the NIH guidelines for the care and use of laboratory animals. Female athymic nude mice ([…]) at the age of 6-7 weeks were purchased from Envigo (Indianapolis, Ind., USA) and acclimatized for 1 week prior to the procedure. Each mouse received 5×10^6 MDA-MB-231 cells in the flank of hind leg by subcutaneous injection. […] […] After 48 hours, mice were sacrificed, and tumors and major organs were retrieved and imaged with IVIS Lumina system. To quantify ICG content in each organ, tumor and major organs were homogenized in DMSO with a Tissue Master homogenizer (Omni International, Kennesaw, Ga., USA). The organ homogenates were centrifuged, and 0.1 mL supernatant was sampled from each homogenate and analyzed with the IVIS Lumina system.

Row | Structure (SMILES) | QANP binding to the activated HUVECs in presence of competitor [1] | tumor fluorescence (whole body imaging) [2] | whole body distribution and clearance [2]
1 | Nc1cc(NC(=O)[C@]2(O)C[C@@H](O)[C@@H](O)[C@H](O)C2)cc(C(=O)O)c1 [QA-NH2, 3-amino-5-((1 S,3R,4S,5R)-1,3,4,5-tetrahydroxycyclohexane-1-carboxamido)benzoic Acid] | reduced | – | –
2 | CC1(C)C(/C=C/C=C/C=C/C=C2\N(CCCCS(=O)(=O)O)c3ccc4ccccc4c3C2(C)C)=[N+](CCCCS(=O)(=O)[O-])c2ccc3ccccc3c21 [free ICG, indocyanine green] | – | did not show fluorescence in tumors at all time points | gradually cleared by hepatobiliary elimination
